From US5681820A, “Guanidinoalkyl glycine β-amino acids useful for inhibiting tumor metastasis” (G. D. Searle & Co., priority 1995, dated 1997) come the findings set out here.

Test [1] deals with T1, human vitronectin receptor (αv β3) (Homo sapiens, UniProt P05106+P06756).
T1 construct: Human vitronectin receptor(αv β3) was purified from human placenta; from tissue; host or cells: human placenta
As to the kind of experiment: Solid Phase Receptor Assay: purified vitronectin receptor (αv β3), competition with biotinylated vitronectin. It is filed as binding. Conditions: 1 nM biotinylated vitronectin, read-out: VnR/IC50. Here is the method: Human vitronectin receptor(αv β3) was purified from human placenta as previously described [Pytela et al., Methods in Enzymology, 144:475-489 (1987)]. Human vitronectin was purified from fresh frozen plasma as previously described [Yatohgo et al., Cell Structure and Function, 13:281-292 (1988)]. Biotinylated human vitronectin was prepared by coupling NHS-biotin from Pierce Chemical Company (Rockford, Ill.) to purified vitronectin as previously described [Charo et al., J. Biol. Chem., 266(3):1415-1421 (1991)]. Assay buffer, OPD substrate tablets, and RIA grade BSA were obtained from Sigma (St. Louis, Mo.). Anti-biotin antibody was obtained from Calbiochem (La Jolla, Calif.). GRGDSP peptide was purchased from Bachem (Torrance, Calif.). Linbro microtiter plates were obtained from Flow Labs (McLean, Va.). ADP reagent was obtained from Sigma (St. Louis, Mo.).
Solid Phase Receptor Assays
This assay was essentially the same as previously reported [Niiya et al., Blood, 70:475-483 (1987)]. […] The plate was read with a microtiter plate reader at a wavelength of 450 nm and when the maximum-binding control wells reached an absorbance of about 1.0, the final A450 were recorded for analysis. The data were analyzed using a macro written for use with the EXCEL™ spreadsheet program. The mean, standard deviation, and %CV were determined for duplicate concentrations. […]

Test [2] deals with M21 human melanoma cells (αv β3-dependent adhesion). As to the kind of experiment: M21 Melanoma Cell Adhesion Assay: αv β3-dependent adhesion to human fibrinogen. The test is classed as cell-based. Conditions: 0.5 h, 200 μM Mn++, 30 minutes, 37° C. As to the method:
M21 Melanoma Cell Adhesion Assasy
This assay involves an αv β3 -dependent adhesion of M21 human melanoma cells to human fibrinogen-coated plastic tissue culture dishes.
Fibrinogen was purified from human plasma. Fibronectin and plasminogen were eliminated from the preparation by passing the sample over gelatin-sepharose 4B and lysine-sepharose 4B resins, respectively. The fibrinogen is diluted to 10 μg/mL in coating buffer (20 mM Tris-HCl, 150 mM NaCl, pH 7.4). 100 μL of diluted fibrinogen is added to each well of a 96-well Immulon 2 microtiter plate (Dynatech; Chantilly, Va.) and allowed to coat overnight at 4° C. […]
M21 human melanoma cells were provided by Dr. J. Smith, La Jolla Cancer Research Institute. […] Cells are counted and suspended to a density of 2×10^6 /mL in adhesion assay buffer containing 200 μM Mn^++. […]
Following adhesion, plates are gently washed 3 times with 200 μL of wash buffer (50 mM Tris-HCl, 150 mM NaCl, pH 7.4) using large bore pipet tips. Plates are briefly blotted dry and 100 μL of cell lysis buffer (50 mM sodium acetate, pH 5.0, 0.5% Triton X-100, 0.3 mg/mL p-nitrophenyl phosphate [Sigma] is added to each well. Plates are incubated for 60 minutes at 37° C. and 50 μL of 1N NaOH is added to stop the reaction. The absorbance of the wells at […] is read using an automatic plate reader.

The subject of test [3] is A3827 cells. Put plainly: Cell Adhesion Assay: adhesion of A3827 cells to fibrinogen. It is filed as cell-based. Conditions: 300 μM MnCl2, 1 hour, 37° C. As to the method: Fibrinogen was purified from human plasma. Fibronectin and plasminogen were eliminated from the preparation by passing the sample over gelatin-sepharose 4B and lysine-sepharose 4B resins, respectively. The fibrinogen was resuspended at a concentration of 10 μg/mL in 100 mM sodium bicarbonate, pH 9.0. Immulon II (Nunc) microtiter plates were coated by incubating with 100 μL/well of fibrinogen solution overnight at 4° C. After coating with fibrinogen, plates were rinsed three times with phosphate buffered saline (PBS) and 100 μL of a 1% bovine serum albumin (BSA) solution was added to each well and stored at -20° C. until needed. A3827 cells were harvested from subconfluent 75 cm^2 culture flasks with 2 mM EDTA in PBS and resuspended at 5×10^5 cells/mL in Dulbecco's PBS without calcium or magnesium (Sigma #5652) containing 1% BSA. MnCl2 was added to a final concentration of 300 μM. Test compounds were resuspended in PBS and added to the cell suspension before serial dilution. […] Adherent cells were quantitated using a non-radioactive cell proliferation assay (Promega #G5430) using the instructions provided by the supplier. Plates were allowed to equilibrate overnight at room temperature in a humidified chamber and a Biotek EL312 microplate spectrophotometer was used to measure the difference in absorbance at […]. […]

Where a name gives a salt, the structure may show the parent alone.

For the compound `CCOC(=O)CC(NC(=O)CNC(=O)CCCNC(=N)N)c1cccnc1` (racemic) [Example 3-ethyl ester, (±) ethyl β-[[2-[[4-[(aminoiminomethyl)amino]-1-oxobutyl]amino]-1-oxoethyl]amino]-3-pyridinepropanoate], the IC50 in test [1] is 987 nM; in test [2], 1410 nM.

Consider `N=C(N)NCCCCC(=O)NCC(=O)NC(CC(=O)O)c1cccnc1` (stereo not drawn) [Example 1, β-[[2-[[5-[(aminoiminomethyl)amino]-1-oxopentyl]amino]-1-oxoethyl]amino]-3-pyridinepropanoic acid, bistrifluoroacetate salt], for which the figures for the IC50 in test [3] and in test [2] were 30 nM and 40.4 nM, respectively. Consider `N=C(N)NCCCCC(=O)N1CCC[C@H]1C(=O)N[C@@H](CC(=O)O)c1cccnc1` [Example 2, βS-[[[1-[5-[(aminoiminomethyl)amino]-1-oxopentyl]pyrrolidin-2-yl]carbonyl]amino-3-pyridinepropanoic acid, bistrifluoroacetate salt], for which the IC50 in test [1] worked out at 142 nM.
